Source: publication PMC9775191, “A Subset Screen of the Compounds Australia Scaffold Library Identifies 7-Acylaminodibenzoxazepinones as Potent and Selective Hits for Anti-Giardia Drug Discovery” (Biomedicines, 2022)

Tested on: G. duodenalis BRIS/91/HEPU/1279
Assay: Primary Giardia screen at 10 µM (live-cell imaging, automated counting)
Assay type: cell-based, Giardia duodenalis
Conditions: for % Inhibition n=1 48h / % Inhibition n=1 24h: first singlicate assay; for % Inhibition n=2 24h / % Inhibition n=2 48h: re-assessment
How it was run: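 Compound added to 10 μM final in medium with 0.2% DMSO, one well each; plates then held in sealed chambers at 3% O2, 5% CO2 in N2; growth imaged and counted automatically at 24 and 48 h; values normalised to vehicle wells minus media blank.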

## COc1cccc(Cn2nc3c(S(=O)(=O)N4CCOCC4)cccn3c2=O)c1 [SN00798018]
  % Inhibition n=1 48h: 4.9%

## O=c1n(Cc2cccc(Br)c2)nc2c(S(=O)(=O)N3CCOCC3)cccn12 [SN00798020]
  % Inhibition n=1 48h: 0.0%

## CCc1ccc(-n2ccc(=O)c(-c3nc(-c4cccc(Cl)c4)no3)n2)cc1 [SN00798039]
  % Inhibition n=1 48h: 4.9%

## Cc1cccc(-c2cc(N3CCN(C(=O)c4cc(Cl)ccc4F)CC3)ncn2)c1 [SN00798065]
  % Inhibition n=1 48h: 47.1%

## Cc1ccc(-c2noc(-c3cccn4c(=O)n(CC(=O)Nc5cc(C)ccc5C)nc34)n2)cc1 [SN00798102]
  % Inhibition n=1 48h: 23.0%

## COc1ccc(-n2nnc(-c3nsc(Nc4ccc(Cl)cc4)n3)c2C)cc1 [SN00798137]
  % Inhibition n=1 48h: 11.6%

## COc1ccc(Nc2nc(-c3nnn(-c4ccc(F)cc4F)c3C)ns2)cc1OC [SN00798157]
  Average % Inhibition 24h: 11.4%
  % Inhibition n=1 24h: 18.3%
  % Inhibition n=2 24h: 4.5%
  Average % Inhibition 48h: 26.3%
  % Inhibition n=1 48h: 52.7%
  % Inhibition n=2 48h: 0.0%

## CCc1ccc(CNC(=O)c2cc3ccncc3n2C)cc1 [SN00798182]
  % Inhibition n=1 48h: 20.1%

## CC(NC(=O)c1cc2ccncc2[nH]1)c1ccccc1 (centres unmarked) [SN00798186]
  % Inhibition n=1 48h: 4.2%

## COc1ccc(OC)c(CNC(=O)c2ccc3[nH]c4c(c3c2)CN(C(C)=O)CC4)c1 [SN00798195]
  % Inhibition n=1 48h: 0.0%

## O=C(NCCc1ccccn1)c1ccc2[nH]c3c(c2c1)CN(C(=O)C1CCC1)CC3 [SN00798214]
  % Inhibition n=1 48h: 0.0%

## CCN1CCc2[nH]c3ccc(NC(=O)c4ccn(CC)n4)cc3c2C1 [SN00798224]
  % Inhibition n=1 48h: 1.1%

## COC(=O)c1ccccc1NC(=O)Nc1ccc2[nH]c3c(c2c1)CN(C(C)C)CC3 [SN00798231]
  % Inhibition n=1 48h: 4.3%

## CNC(=O)N1CCC(c2nc(C)c(C(=O)NCCCOC)s2)CC1 [SN00798240]
  % Inhibition n=1 48h: 6.4%

## Cc1nc(C2CCN(C(=O)Nc3ccccc3)CC2)sc1C(=O)N1CCCCCC1 [SN00798241]
  % Inhibition n=1 48h: 0.0%

## Cc1ccc(-c2nc(-c3cccc(-c4ccn[nH]4)c3)no2)cc1 [SN00798298]
  Average % Inhibition 24h: 6.3%
  % Inhibition n=1 24h: 9.4%
  % Inhibition n=2 24h: 3.2%
  Average % Inhibition 48h: 41.5%
  % Inhibition n=1 48h: 55.6%
  % Inhibition n=2 48h: 27.4%

## Cc1cc(-c2cc(S(=O)(=O)N(CCN(C)C)Cc3cccs3)c(C)s2)[nH]n1 [SN00798340]
  % Inhibition n=1 48h: 13.6%

## Cc1nc(-c2ccc3c(c2)n(CC(=O)NC2CCN(Cc4ccccc4)CC2)c(=O)n3C(C)C)no1 [SN00798376]
  % Inhibition n=1 48h: 5.7%

## Cc1nnc(-c2ccc3ccn(CC(=O)NC4CC4)c3c2)o1 [SN00798392]
  % Inhibition n=1 48h: 0.0%

## CCc1nc(-c2cc(S(=O)(=O)NCc3ccc(F)c(Cl)c3)c(C)s2)cs1 [SN00798443]
  Average % Inhibition 24h: 15.2%
  % Inhibition n=1 24h: 16.9%
  % Inhibition n=2 24h: 13.6%
  Average % Inhibition 48h: 43.8%
  % Inhibition n=1 48h: 50.2%
  % Inhibition n=2 48h: 37.5%

## COc1ccc(C(=O)Nc2cc(-c3nc(C)cs3)sc2C)cc1OC [SN00798474]
  % Inhibition n=1 48h: 27.2%

## COc1ccc(-c2nc(CS(=O)(=O)c3ccc(C)cc3)no2)c(C)c1 [SN00798481]
  % Inhibition n=1 48h: 11.0%

## Cc1sc2cc(C(=O)NC(C)(C)C)[nH]c2c1CN1CCOCC1 [SN00798503]
  % Inhibition n=1 48h: 2.4%

## Cc1sc2cc(C(=O)N3CCN(c4ccc(F)cc4)CC3)[nH]c2c1CN1CCOCC1 [SN00798508]
  % Inhibition n=1 48h: 27.9%

## COc1ccc(CNC(=O)c2[nH]c3cc(C)sc3c2CN2CCCC2)cc1 [SN00798517]
  % Inhibition n=1 48h: 35.5%

## CC(C)Cn1cc2c3c(cccc31)CN(C(=O)Cc1cccs1)CC2 [SN00798552]
  % Inhibition n=1 48h: 35.1%

## COCCn1cc2c3c(cccc31)CN(C(=O)c1cccc(Cl)c1)CC2 [SN00798558]
  % Inhibition n=1 48h: 26.2%

## Cn1cc2c3c(cccc31)CN(C(=O)NC(C)(C)C)CC2 [SN00798578]
  % Inhibition n=1 48h: 7.2%

## COCCn1cc2c3c(cccc31)CN(C(=O)Nc1ccccc1F)CC2 [SN00798581]
  % Inhibition n=1 48h: 22.0%

## Cc1nnc(-c2cc(NS(=O)(=O)c3ccc(Cl)cc3)c(C)s2)o1 [SN00798629]
  % Inhibition n=1 48h: 2.8%

## COc1ccccc1-c1nc(C2CCCN(C(=O)c3ccc(C(C)C)cc3)C2)no1 (centres unmarked) [SN00798647]
  % Inhibition n=1 48h: 0.0%

## Cc1cc(C)cc(C(=O)NCc2ccc3c(c2)nnn3C)c1 [SN00798663]
  % Inhibition n=1 48h: 0.0%

## Cn1nnc2cc(CNC(=O)c3ccc(F)cc3)ccc21 [SN00798670]
  % Inhibition n=1 48h: 3.3%

## CCCNC(=O)c1cn(C)nc1S(=O)(=O)N1CCC(C)CC1 [SN00798692]
  % Inhibition n=1 48h: 3.5%

## CCn1cc(C(=O)Nc2ccc(F)cc2)c(S(=O)(=O)N2CCC(C)CC2)n1 [SN00798700]
  % Inhibition n=1 48h: 0.0%

## CCOC(=O)c1ccc(NC(=O)Cn2c(=O)cc(-c3nc(C)no3)c3ccccc32)cc1 [SN00798707]
  % Inhibition n=1 48h: 2.1%

## CC(C)c1noc(-c2cc(=O)n(CC(=O)N3CCCC3)c3ccccc23)n1 [SN00798718]
  % Inhibition n=1 48h: 0.0%

## Nc1nc(N2CCN(C(=O)c3ccco3)CC2)ncc1C(=O)Nc1ccccc1 [SN00798744]
  % Inhibition n=1 48h: 0.0%

## COc1ccc(NC(=O)c2cnc(N3CCN(CC(=O)N4CCCC4)CC3)nc2N)cc1 [SN00798764]
  % Inhibition n=1 48h: 0.0%

## O=S(=O)(c1cccs1)N1CCc2[nH]cnc2C1 [SN00798784]
  % Inhibition n=1 48h: 0.0%

## Cc1cc(C)c(S(=O)(=O)N2CCc3[nH]cnc3C2)cc1C [SN00798786]
  % Inhibition n=1 48h: 0.0%

## COc1c(C(=O)Nc2ccccc2)oc2ccc(NC(=O)C3CCCCC3)cc12 [SN00798797]
  % Inhibition n=1 48h: 3.8%

## COc1c(C(=O)Nc2ccc(C)cc2)oc2ccc(NC(=O)c3ccc(C)s3)cc12 [SN00798811]
  % Inhibition n=1 48h: 19.9%

## CC(=O)N1CCc2cc(C)c(S(=O)(=O)NC3CC3)cc21 [SN00798831]
  % Inhibition n=1 48h: 4.3%

## Cc1cc2c(cc1S(=O)(=O)NC(C)C)N(C(=O)C1CC1)CC2 [SN00798844]
  % Inhibition n=1 48h: 15.5%

## CC(C)c1csc(-c2ccc(S(=O)(=O)NCc3ccc(Cl)cc3)s2)n1 [SN00798864]
  % Inhibition n=1 48h: 0.0%

## CCC(C)NC(=O)C1CCN(c2cnc(N3CCSCC3)nc2)CC1 (centres unmarked) [SN00798903]
  % Inhibition n=1 48h: 12.6%

## CCCC(=O)Nc1ccc2c(c1)CN(C(=O)Cc1ccccc1C)C(C(=O)N(C)C)C2 (centres unmarked) [SN00798922]
  % Inhibition n=1 48h: 11.7%

## CC(=O)Nc1ccc2c(c1)CN(C(=O)C1CCCCC1)C(C(=O)N1CCCCC1)C2 (centres unmarked) [SN00798930]
  % Inhibition n=1 48h: 8.7%

## CCc1c(C2CCN(C(=O)c3cnccn3)CC2)noc1N [SN00798959]
  % Inhibition n=1 48h: 12.1%

## CCCn1c(C2CCN(C(=O)Nc3ccc(F)cc3)CC2)cc(=O)n2nccc12 [SN00798971]
  % Inhibition n=1 48h: 19.1%

## Cn1c(C2CCN(C(=O)Nc3ccccc3F)CC2)cc(=O)n2nccc12 [SN00798982]
  % Inhibition n=1 48h: 3.2%

## COc1ccc(-c2ncc3c(n2)CCN(C(=O)c2ccccc2C(F)(F)F)C3)cc1 [SN00799000]
  % Inhibition n=1 48h: 0.0%

## O=C(c1cccc(Br)c1)N1CCc2nc(-c3ccc(F)cc3)ncc2C1 [SN00799013]
  % Inhibition n=1 48h: 13.8%

## O=S(=O)(c1cccc2cccnc12)N1CCc2nc(-c3ccc(F)cc3)ncc2C1 [SN00799070]
  % Inhibition n=1 48h: 3.1%

## COc1ccc(S(=O)(=O)N2CCc3nc(-c4ccccc4)ncc3C2)cc1 [SN00799076]
  % Inhibition n=1 48h: 6.9%

## CCCN(C)C(=O)c1ccc(-c2ccnc(N3CCCCC3)n2)cc1 [SN00799110]
  % Inhibition n=1 48h: 0.0%

## CCC(C)NC(=O)CC1Sc2ncccc2N(C)C1=O (centres unmarked) [SN00799120]
  % Inhibition n=1 48h: 11.7%

## O=C(Cn1c(=O)c2nncn2c2ncccc21)N1CCN(c2cccc(Cl)c2)CC1 [SN00799155]
  % Inhibition n=1 48h: 17.9%

## CCn1nnc2c(C(=O)NCCC3=CCCCC3)c(C)sc2c1=O [SN00799184]
  % Inhibition n=1 48h: 2.6%

## CCCNC(=O)c1cncc(-c2cccc(NC(=O)CC)c2)c1 [SN00799189]
  % Inhibition n=1 48h: 0.0%

## Cc1ccccc1C(=O)N1CCC(Cc2nnc(-c3ccccc3)o2)CC1 [SN00799218]
  % Inhibition n=1 48h: 12.0%

## O=C(N1CCC(CCOCc2cccc(F)c2)CC1)C1(c2ccccc2)CC1 [SN00799224]
  % Inhibition n=1 48h: 0.0%

## CCOC(=O)c1cccc(Nc2ncccc2S(N)(=O)=O)c1 [SN00799296]
  Average % Inhibition 24h: 14.5%
  % Inhibition n=1 24h: 29.1%
  % Inhibition n=2 24h: 0.0%
  Average % Inhibition 48h: 35.4%
  % Inhibition n=1 48h: 70.8%
  % Inhibition n=2 48h: 0.0%

## CC(C)(C)NC(=O)c1cc(-c2cccnc2)[nH]n1 [SN00799308]
  % Inhibition n=1 48h: 15.5%

## O=C(c1cc(-c2cccnc2)[nH]n1)N1CCCC1 [SN00799309]
  % Inhibition n=1 48h: 13.7%
